Test results reported in ChEMBL document CHEMBL1201862, “PubChem BioAssay data set” (2004).
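Briefly, cells in 96-well plates were exposed to five compound concentrations for 48 h, and endpoints were estimated by linear interpolation. At the GI50, growth is halved.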 Calls of active or inactive are those of the source. Rule as the data show it: active = GI50 up to about 1.1 µM and inactive = higher.

Assays:
Experiment in all cases: NCI-60 cell line screen, 48 h
HCC 2998 = tested on: HCC 2998
NCI-H460 = tested on: NCI-H460
NCI-H226 = tested on: NCI-H226
SNB-75 = tested on: SNB-75
HCT-15 = tested on: HCT-15
RXF 393 = tested on: RXF 393
EKVX = tested on: EKVX
SK-MEL-2 = tested on: SK-MEL-2
K562 = tested on: K562
SF-268 = tested on: SF-268
786-0 = tested on: 786-0
TK-10 = tested on: TK-10
UO-31 = tested on: UO-31
SF-539 = tested on: SF-539
RPMI-8226 = tested on: RPMI-8226
M14 = tested on: M14
SR = tested on: SR
IGROV-1 = tested on: IGROV-1
Malme-3M = tested on: Malme-3M
HOP-92 = tested on: HOP-92

Row | Structure (SMILES) | GI50 (HCC 2998) | GI50 (NCI-H460) | GI50 (NCI-H226) | GI50 (SNB-75) | GI50 (HCT-15) | GI50 (RXF 393) | GI50 (EKVX) | GI50 (SK-MEL-2) | GI50 (K562) | GI50 (SF-268) | GI50 (786-0) | GI50 (TK-10) | GI50 (UO-31) | GI50 (SF-539) | GI50 (RPMI-8226) | GI50 (M14) | GI50 (SR) | GI50 (IGROV-1) | GI50 (Malme-3M) | GI50 (HOP-92)
1 | NCCN/C(=N\c1ccccc1)Nc1ccccc1 | > 100 µM (inactive) | > 100 µM (inactive) | > 100 µM (inactive) | 72.6 µM (inactive) | > 100 µM | 24.3 µM (inactive) | > 100 µM (inactive) | > 100 µM (inactive) | > 100 µM (inactive) | > 100 µM (inactive) | > 100 µM (inactive) | > 100 µM (inactive) | > 100 µM (inactive) | 70.8 µM (inactive) | > 100 µM (inactive) | > 100 µM (inactive) | > 100 µM (inactive) | > 100 µM (inactive) | > 100 µM (inactive) | 
2 | CC1(C)OC2C(CO)OC(N/C(=N/C#N)Oc3ccccc3)C2O1 (stereo not given) | > 100 µM (inactive) | > 100 µM (inactive) | > 100 µM (inactive) | 75.9 µM (inactive) | > 100 µM | > 100 µM (inactive) | > 100 µM (inactive) |  | > 100 µM (inactive) | > 100 µM (inactive) | > 10 µM (inactive) | > 100 µM (inactive) | > 100 µM (inactive) | > 100 µM (inactive) | > 100 µM (inactive) | > 100 µM (inactive) | > 100 µM (inactive) | > 100 µM (inactive) |  | 
3 | Cn1c2ccccc2n2c(=O)c3cc([N+](=O)[O-])ccc3c(C#N)c12 | > 100 µM (inactive) | > 100 µM (inactive) | > 100 µM (inactive) | 56.2 µM (inactive) | > 100 µM | > 100 µM (inactive) | > 100 µM (inactive) | > 100 µM (inactive) | > 100 µM (inactive) | > 100 µM (inactive) | 22.3 µM (inactive) | > 100 µM (inactive) | > 100 µM (inactive) | 50.4 µM (inactive) | > 100 µM (inactive) | > 100 µM (inactive) | > 100 µM (inactive) | > 100 µM (inactive) |  | 
4 | O=c1n(C2CCCCC2)c(=C(Cl)Cl)c(=C(Cl)Cl)n1C1CCCCC1 | > 100 µM (inactive) | > 100 µM (inactive) | > 100 µM (inactive) | > 100 µM (inactive) | > 100 µM | > 100 µM (inactive) | > 100 µM (inactive) | > 100 µM (inactive) | > 100 µM (inactive) | > 100 µM (inactive) | > 100 µM (inactive) | > 100 µM (inactive) | > 100 µM (inactive) | > 100 µM (inactive) | 34.6 µM (inactive) |  | > 100 µM (inactive) | > 100 µM (inactive) | > 100 µM (inactive) | 
5 | CCC1CN(C(=O)c2ccccc2)C(Cc2c[nH]c3ccccc23)C(=O)C1CC(=O)OC (stereo not given) |  | 43.4 µM (inactive) | > 100 µM (inactive) | 88.3 µM (inactive) | > 100 µM | > 100 µM (inactive) | 77.4 µM (inactive) | > 100 µM (inactive) | 47.8 µM (inactive) | > 100 µM (inactive) |  | > 100 µM (inactive) | 35.2 µM (inactive) | > 100 µM (inactive) |  | 58.6 µM (inactive) | 36.6 µM (inactive) | 72.4 µM (inactive) | 55.6 µM (inactive) | > 100 µM (inactive)
6 | C=C(Br)CN(C#N)CC(=C)Br | > 100 µM (inactive) | > 100 µM (inactive) | > 100 µM (inactive) | > 100 µM (inactive) | > 100 µM | > 100 µM (inactive) | > 100 µM (inactive) | > 100 µM (inactive) | > 100 µM (inactive) | > 100 µM (inactive) | > 100 µM (inactive) | > 100 µM (inactive) | > 100 µM (inactive) | > 100 µM (inactive) | > 100 µM (inactive) | > 100 µM (inactive) | > 100 µM (inactive) | > 100 µM (inactive) | > 100 µM (inactive) | 
7 | Cc1ccc(NC(=O)SCCC(=O)O)cc1 | > 100 µM (inactive) | > 100 µM (inactive) | > 100 µM (inactive) | 8.95 µM (inactive) | > 100 µM | > 100 µM (inactive) | > 100 µM (inactive) | > 100 µM (inactive) | > 100 µM (inactive) | 17.2 µM (inactive) | > 100 µM (inactive) | > 100 µM (inactive) | > 100 µM (inactive) | > 100 µM (inactive) | > 100 µM (inactive) | > 100 µM (inactive) | > 100 µM (inactive) | 47.4 µM (inactive) |  | 
8 | CCN1C(=O)N2C(OC)c3ccccc3C(Br)C2(OC)C1=O (stereo not given) | > 100 µM (inactive) | > 100 µM (inactive) | > 100 µM (inactive) | 48.3 µM (inactive) | > 100 µM |  |  | > 100 µM (inactive) | > 100 µM (inactive) |  |  | > 100 µM (inactive) | > 100 µM (inactive) |  | > 100 µM (inactive) | > 100 µM (inactive) | > 100 µM (inactive) | > 100 µM (inactive) | > 100 µM (inactive) | 
